We go through five molecules from ChEMBL document CHEMBL3714740, “alpha-amino acid derivatives and medicaments containing the same as an active ingredient” (2011).

pIC50: −log10 of the molar value. Active and inactive are the calls of the source. No cut-off for these calls is given here.

One test relates to DU-145. As to the kind of experiment: Antitumor activity against human DU145 cells xenografted in nude Balb/c mouse assessed as inhibition of tumor volume at 100 mg/kg administered orally using gastric tube once daily for 14 days starting at mean tumor volume of 200 to 250 mm3. The following applies: Prostate. Type of test: functional, organism-based.
The subject of a further test is SW-620. As to the kind of experiment: Antitumor activity against human SW620 cells xenografted in nude Balb/c mouse assessed as inhibition of tumor volume at 100 mg/kg administered orally using gastric tube once daily for 17 days starting at mean tumor volume of 200 to 250 mm3. The format is functional, organism-based.
Test [1] in a line: Antiproliferative activity against human SW620 cells assessed as inhibition of cell proliferation incubated for 4 days by CCK8 assay. The following applies: SW-620, 96 h. The format is functional, cell-based.

`CC(C)(Nc1ccc(Cl)c(OCC(O)CO)c1)C(=O)Nc1nc2c(C(F)(F)F)cc3[nH]ncc3c2s1` (configuration not stated): the inhibition result in the test on DU-145 was “Active”. As to `CNC(=O)c1cc(NC2(C(=O)Nc3nc4ccc5[nH]ncc5c4s3)CC2)ccc1Cl`, the inhibition result in the test with DU-145 and with SW-620 was “Active” throughout. For the molecule `CC(C)(Nc1ccc(Cl)cc1)C(=O)Nc1nc2ccc3[nH]ncc3c2s1`, the inhibition result with DU-145 and in the test with SW-620 was “Active” in each case.

`CCNC(=O)c1cc(NC(C)(C)C(=O)Nc2nc3c(C(F)(F)F)cc4[nH]ncc4c3s2)ccc1Cl`: in the test with DU-145, the inhibition entry is “Active”. In the case of `CC(C)(C)C(=O)Nc1cc(NC(C)(C)C(=O)Nc2nc3ccc4[nH]ncc4c3s2)ccc1Cl`, the pIC50 in test [1] was 5.57.
